From patent US8173652B2, “Isoxazole-isoxazoles and isoxazole-isothiazoles” (Hoffmann-La Roche Inc., priority 2009, dated 2012)

Target: T1, human GABA A receptor α5β3γ2 (Homo sapiens, UniProt P18507+P31644)
T1 construct: expressed in transfected cells; host or cells: HEK293 (transiently transfected), membrane preparation
Experiment: [3H]flumazenil competition binding assay, human GABA A α5 receptor
Settings: human α5β3γ2 receptors transiently transfected in HEK293 cells; displacement of [3H]flumazenil 0.5 nM; 1 hour at 4° C.; means of two determinations; read-out: hKi GABA A α5
Method: Membrane Preparation and Binding Assay
The affinity of compounds at GABA A receptor subtypes was measured by competition for [3H]flumazenil (85 Ci/mmol; Roche) binding to HEK293 cells expressing rat (stably transfected) or human (transiently transfected) receptors of composition α1β3γ2, α2β3γ2, α3β3γ2 and α5β3γ2.
Cell pellets were suspended in Krebs-tris buffer (4.8 mM KCl, 1.2 mM CaCl2, 1.2 mM MgCl2, 120 mM NaCl, 15 mM Tris; pH 7.5; binding assay buffer), homogenized by polytron for ca. 20 sec on ice and centrifuged for 60 min at 4° C. (50000 g; Sorvall, rotor: SM24=20000 rpm). The cell pellets were re-suspended in Krebs-tris buffer and homogenized by polytron for ca. 15 sec on ice. Protein was measured (Bradford method, Bio-Rad) and aliquots of 1 mL were prepared and stored at −80° C.
Radioligand binding assays were carried out in a volume of […] (96-well plates) which contained […] of cell membranes, [^3H]flumazenil at a concentration of 1 nM for α1, α2 and α3 subunits and 0.5 nM for α5 subunits and the test compound in the range of […]. Nonspecific binding was defined by 10^−5 M diazepam and typically represented less than 5% of the total binding. Assays were incubated to equilibrium for 1 hour at 4° C. and harvested onto GF/C uni-filters (Packard) by filtration using a Packard harvester and washing with ice-cold wash buffer (50 mM Tris; pH 7.5). After drying, filter-retained radioactivity was detected by liquid scintillation counting. Ki values were calculated using Excel-Fit (Microsoft) and are the means of two determinations.

SMILES	Ki
CCCCc1noc(C)c1COc1cc(C(=O)N[C@@H](C)CO)on1 [Example 26, 3-(3-Butyl-5-methyl-isoxazol-4-ylmethoxy)-isoxazole-5-carboxylic acid ((S)-2-hydroxy-1-methyl-ethyl)-amide]	22.7 nM
O=C(NCC(F)(F)F)c1cc(OCc2c(-c3ccc(F)cc3)noc2CO)no1 [Example 45, 3-[3-(4-Fluoro-phenyl)-5-hydroxymethyl-isoxazol-4-ylmethoxy]-isoxazole-5-carboxylic acid (2,2,2-trifluoro-ethyl)-amide]	10 nM
CCCCc1noc(C)c1COc1cc(C(=O)NC2CCOC2)on1 (single isomer, unassigned) [Example 30, (R or S)-3-(3-Butyl-5-methyl-isoxazol-4-ylmethoxy)-isoxazole-5-carboxylic acid (tetrahydro-furan-3-yl)-amide]	6.5 nM
Cc1onc(-c2ccccn2)c1COc1cc(C(=O)NN2CCOCC2)on1 [Example 19, 3-(5-Methyl-3-pyridin-2-yl-isoxazol-4-ylmethoxy)-isoxazole-5-carboxylic acid morpholin-4-ylamide]	2 nM
Cc1onc(-c2ccccn2)c1COc1cc(C(=O)NC(C)C)sn1 [Example 36, 3-(5-Methyl-3-pyridin-2-yl-isoxazol-4-ylmethoxy)-isothiazole-5-carboxylic acid isopropyl-amide]	15 nM
Cc1onc(-c2ccccn2)c1COc1cc(C(=O)NN2CCCCC2)on1 [Example 20, 3-(5-Methyl-3-pyridin-2-yl-isoxazol-4-ylmethoxy)-isoxazole-5-carboxylic acid piperidin-1-ylamide]	6 nM
Cc1onc(-c2ccccn2)c1COc1cc(C(=O)NC2CCOC2)on1 (stereo not shown) [Example 16, 3-(5-Methyl-3-pyridin-2-yl-isoxazol-4-ylmethoxy)-isoxazole-5-carboxylic acid (tetrahydro-furan-3-yl)-amide]	1.4 nM
Cc1onc(-c2ccccn2)c1COc1cc(C(=O)NN(C)C)on1 [Example 18, 3-(5-Methyl-3-pyridin-2-yl-isoxazol-4-ylmethoxy)-isoxazole-5-carboxylic acid N′,N′-dimethyl-hydrazide]	8.9 nM
Cc1onc(-c2ccc(F)cn2)c1COc1cc(C(=O)NC(C)C)sn1 [Example 38, 3-[3-(5-Fluoro-pyridin-2-yl)-5-methyl-isoxazol-4-ylmethoxy]-isothiazole-5-carboxylic acid isopropylamide]	11.8 nM
Cc1onc(-c2ccccc2)c1COc1cc(C(=O)NC(C)C)sn1 [Example 34, 3-(5-Methyl-3-phenyl-isoxazol-4-ylmethoxy)-isothiazole-5-carboxylic acid isopropylamide]	28 nM
